Read-outs that look alike come from different tables or passages of the source. Where a SMILES comes first, the peptide text is derived from it. Bridges are numbered along the chain shown (N, C = ends). [ ]: non-standard residue; d: D form. Nle = CCCC[C@H](N)C(=O)O
How the values were obtained:
human Kv1.6 = target: T1, human Kv1.6 (Homo sapiens, UniProt P17658); assay: cell-based
T1 construct: expressed in transfected cells; host or cells: CHO

Rat whole blood = Rat whole blood (Rattus norvegicus, UniProt P15384); format: cell-based
human Kv1.2 = target: T2, human Kv1.2 (Homo sapiens, UniProt P16389); assay: cell-based
T2 construct: expressed in transfected cells; host or cells: CHO

human Kv1.1 = target: T3, human Kv1.1 (Homo sapiens, UniProt Q09470); assay: cell-based
T3 construct: expressed in transfected cells; host or cells: CHO

[1] = ratio of patch clamp IC50 values
[2] = IL-17A release, thapsigargin, 24 Hr, at least 2 replicates

T2 sequence (P16389 whole entry): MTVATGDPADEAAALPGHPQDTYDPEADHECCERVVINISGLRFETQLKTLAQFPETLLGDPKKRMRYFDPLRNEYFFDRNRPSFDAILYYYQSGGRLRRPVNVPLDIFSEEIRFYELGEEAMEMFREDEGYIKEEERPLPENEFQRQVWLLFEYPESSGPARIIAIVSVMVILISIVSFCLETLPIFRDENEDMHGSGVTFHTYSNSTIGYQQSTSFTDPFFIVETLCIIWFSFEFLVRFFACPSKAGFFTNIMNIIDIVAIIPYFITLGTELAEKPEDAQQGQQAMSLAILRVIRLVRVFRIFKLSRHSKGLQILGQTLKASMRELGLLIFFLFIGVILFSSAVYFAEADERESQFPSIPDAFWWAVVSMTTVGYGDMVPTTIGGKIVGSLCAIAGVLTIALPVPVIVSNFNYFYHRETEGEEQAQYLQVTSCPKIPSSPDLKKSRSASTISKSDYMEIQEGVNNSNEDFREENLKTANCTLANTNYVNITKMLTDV
Sequence of Rat whole blood (P15384 whole entry): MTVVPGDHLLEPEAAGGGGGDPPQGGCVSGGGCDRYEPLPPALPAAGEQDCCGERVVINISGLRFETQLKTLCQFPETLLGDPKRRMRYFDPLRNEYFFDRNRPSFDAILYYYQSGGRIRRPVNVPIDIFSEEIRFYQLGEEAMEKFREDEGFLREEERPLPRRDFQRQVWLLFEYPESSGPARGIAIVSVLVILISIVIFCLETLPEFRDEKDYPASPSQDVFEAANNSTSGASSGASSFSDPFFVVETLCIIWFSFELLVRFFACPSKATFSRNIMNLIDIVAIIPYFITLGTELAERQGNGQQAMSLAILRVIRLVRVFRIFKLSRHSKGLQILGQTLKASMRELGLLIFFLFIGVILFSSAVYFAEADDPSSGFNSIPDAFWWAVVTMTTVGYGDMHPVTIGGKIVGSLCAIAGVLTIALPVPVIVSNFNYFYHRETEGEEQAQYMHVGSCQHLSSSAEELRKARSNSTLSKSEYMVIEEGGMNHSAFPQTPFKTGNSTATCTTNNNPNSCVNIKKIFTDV
T3 sequence (Q09470 whole entry): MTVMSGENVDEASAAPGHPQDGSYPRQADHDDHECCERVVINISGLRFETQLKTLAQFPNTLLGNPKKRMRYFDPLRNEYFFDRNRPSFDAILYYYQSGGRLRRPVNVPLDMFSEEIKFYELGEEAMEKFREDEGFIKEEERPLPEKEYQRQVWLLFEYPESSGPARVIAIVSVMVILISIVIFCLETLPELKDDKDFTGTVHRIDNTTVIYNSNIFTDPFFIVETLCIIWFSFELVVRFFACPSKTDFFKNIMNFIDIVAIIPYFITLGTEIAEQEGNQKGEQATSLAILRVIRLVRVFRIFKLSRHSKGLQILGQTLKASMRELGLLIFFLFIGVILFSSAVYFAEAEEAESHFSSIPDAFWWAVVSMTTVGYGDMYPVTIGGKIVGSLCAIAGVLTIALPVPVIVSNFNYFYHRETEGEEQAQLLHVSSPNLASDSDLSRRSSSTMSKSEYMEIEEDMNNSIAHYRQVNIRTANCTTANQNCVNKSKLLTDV
T1 sequence (P17658 whole entry): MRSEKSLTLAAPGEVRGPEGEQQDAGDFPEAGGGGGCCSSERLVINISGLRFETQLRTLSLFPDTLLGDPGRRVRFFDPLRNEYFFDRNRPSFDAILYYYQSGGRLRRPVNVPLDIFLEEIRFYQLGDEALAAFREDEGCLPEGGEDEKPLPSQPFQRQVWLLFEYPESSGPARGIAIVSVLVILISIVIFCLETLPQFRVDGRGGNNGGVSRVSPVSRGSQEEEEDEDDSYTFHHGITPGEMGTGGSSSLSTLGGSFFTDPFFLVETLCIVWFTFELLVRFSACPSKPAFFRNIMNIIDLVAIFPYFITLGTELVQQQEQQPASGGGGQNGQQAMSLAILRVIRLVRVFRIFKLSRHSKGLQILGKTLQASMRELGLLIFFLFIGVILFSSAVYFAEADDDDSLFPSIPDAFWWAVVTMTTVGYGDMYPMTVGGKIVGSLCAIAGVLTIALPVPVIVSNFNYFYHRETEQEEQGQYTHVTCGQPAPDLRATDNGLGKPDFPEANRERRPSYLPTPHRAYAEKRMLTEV

SMILES	Selectivity ratio Kv1.6/Kv1.3 (human Kv1.6; [1])	IC50 (Rat whole blood; [2]) [nM]	Selectivity ratio Kv1.2/Kv1.3 (human Kv1.2; [1])	Selectivity ratio Kv1.1/Kv1.3 (human Kv1.1; [1])	Selectivity ratio Kv1.6/Kv1.3 (human Kv1.6)	IC50 (Rat whole blood) [nM]	Selectivity ratio Kv1.2/Kv1.3 (human Kv1.2)	Selectivity ratio Kv1.1/Kv1.3 (human Kv1.1)
CCCC[C@@H]1NC(=O)[C@@H]2CSSC[C@H](NC(=O)[C@H](CCCNC(=N)N)NC(=O)[C@H](CCCC)NC(=O)[C@H](CC(=O)O)NC(=O)[C@@H](N)CCCC)C(=O)N[C@@H](CO)C(=O)N[C@@H](C)C(=O)N[C@@H](CO)C(=O)N[C@@H](C(C)C)C(=O)N[C@@H](CCC(=O)O)C(=O)N[C@H]3CSSC[C@H](NC(=O)[C@H](CCCCN)NC(=O)[C@H](CCCCN)NC(=O)[C@H](CC(N)=O)NC1=O)C(=O)N[C@@H](CCCCN)C(=O)N[C@H](C(=O)N[C@@H](Cc1ccc(O)cc1)C(=O)N1CCC[C@H]1C(=O)N[C@@H](CCCNC(=N)N)C(=O)O)CSSC[C@H](NC(=O)[C@H](CCCCN)NC(=O)[C@H](CCC(N)=O)NC(=O)[C@H](CCCCN)NC3=O)C(=O)N[C@@H](CC(C)C)C(=O)N[C@@H](CCCCN)C(=O)N[C@@H](C)C(=O)N[C@@H]([C@@H](C)CC)C(=O)NCC(=O)N[C@@H](CO)C(=O)N[C@@H]([C@@H](C)CC)C(=O)N[C@@H](Cc1ccccc1)C(=O)NCC(=O)N[C@@H](CCCCN)C(=O)N2 [compound 90] (H-[Nle]D[Nle]RCSASVECKQKCLKAIGSIFGKC[Nle]NKKCKCYPR-OH; disulfide 5-26, 11-31, 15-33)	>17800	0.55	11034	>17800				
CCCC[C@@H]1NC(=O)[C@@H]2CSSC[C@H](NC(=O)[C@H](CCCNC(=N)N)NC(=O)[C@H](CCCC)NC(=O)[C@H](CCC(=O)O)NC(=O)[C@@H](NC(=O)[C@@H]3CCCN3)[C@@H](C)CC)C(=O)N[C@@H](CO)C(=O)N[C@@H](C)C(=O)N[C@@H](CO)C(=O)N[C@@H](C(C)C)C(=O)N[C@@H](CCC(=O)O)C(=O)N[C@H]3CSSC[C@H](NC(=O)[C@H](CCCCN)NC(=O)[C@H](CCCCN)NC(=O)[C@H](CC(N)=O)NC1=O)C(=O)N[C@@H](CCCCN)C(=O)N[C@H](C(=O)N[C@@H](Cc1ccc(O)cc1)C(=O)N1CCC[C@H]1C(=O)N[C@@H](CCCNC(=N)N)C(=O)O)CSSC[C@H](NC(=O)[C@H](CCCCN)NC(=O)[C@H](CCC(N)=O)NC(=O)[C@H](CCCCN)NC3=O)C(=O)N[C@@H](CC(C)C)C(=O)N[C@@H](CCCCN)C(=O)N[C@@H](C)C(=O)N[C@@H]([C@@H](C)CC)C(=O)NCC(=O)N[C@@H](CO)C(=O)N[C@@H]([C@@H](C)CC)C(=O)N[C@@H](Cc1ccccc1)C(=O)NCC(=O)N[C@@H](CCCCN)C(=O)N2 [compound 92] (H-PIE[Nle]RCSASVECKQKCLKAIGSIFGKC[Nle]NKKCKCYPR-OH; disulfide 6-27, 12-32, 16-34)					>7800	1.8	4561	>7800
CCCC[C@@H]1NC(=O)[C@@H]2CSSC[C@H](N)C(=O)N[C@@H](CO)C(=O)N[C@@H](C)C(=O)N[C@@H](CO)C(=O)N[C@@H](C(C)C)C(=O)N[C@@H](CCC(=O)O)C(=O)N[C@H]3CSSC[C@H](NC(=O)[C@H](CCCCN)NC(=O)[C@H](CCCCN)NC(=O)[C@H](CC(N)=O)NC1=O)C(=O)N[C@@H](CCCCN)C(=O)N[C@H](C(=O)N[C@@H](Cc1ccc(O)cc1)C(=O)N1CCC[C@H]1C(=O)N[C@@H](CCCNC(=N)N)C(N)=O)CSSC[C@H](NC(=O)[C@H](CCCCN)NC(=O)[C@H](CCC(N)=O)NC(=O)[C@H](CCCCN)NC3=O)C(=O)N[C@@H](CC(C)C)C(=O)N[C@@H](CCCCN)C(=O)N[C@@H](C)C(=O)N[C@@H]([C@@H](C)CC)C(=O)NCC(=O)N[C@@H](CO)C(=O)N[C@@H]([C@@H](C)CC)C(=O)N[C@@H](Cc1ccccc1)C(=O)NCC(=O)N[C@@H](CCCCN)C(=O)N2 [compound 98] (H-CSASVECKQKCLKAIGSIFGKC[Nle]NKKCKCYPR-NH2; disulfide 1-22, 7-27, 11-29)	>7000	1.6	>7000	>7000				
CCCC[C@@H]1NC(=O)[C@@H]2CSSC[C@H](NC(C)=O)C(=O)N[C@@H](CO)C(=O)N[C@@H](C)C(=O)N[C@@H](CO)C(=O)N[C@@H](C(C)C)C(=O)N[C@@H](CCC(=O)O)C(=O)N[C@H]3CSSC[C@H](NC(=O)[C@H](CCCCN)NC(=O)[C@H](CCCCN)NC(=O)[C@H](CC(N)=O)NC1=O)C(=O)N[C@@H](CCCCN)C(=O)N[C@H](C(=O)N[C@@H](Cc1ccc(O)cc1)C(=O)N1CCC[C@H]1C(=O)N[C@@H](CCCNC(=N)N)C(N)=O)CSSC[C@H](NC(=O)[C@H](CCCCN)NC(=O)[C@H](CCC(N)=O)NC(=O)[C@H](CCCCN)NC3=O)C(=O)N[C@@H](CC(C)C)C(=O)N[C@@H](CCCCN)C(=O)N[C@@H](C)C(=O)N[C@@H]([C@@H](C)CC)C(=O)NCC(=O)N[C@@H](CO)C(=O)N[C@@H]([C@@H](C)CC)C(=O)N[C@@H](Cc1ccccc1)C(=O)NCC(=O)N[C@@H](CCCCN)C(=O)N2 [compound 99] (Ac-CSASVECKQKCLKAIGSIFGKC[Nle]NKKCKCYPR-NH2; disulfide 1-22, 7-27, 11-29)	>12400	0.88	1591	>12400				
CCCC[C@@H]1NC(=O)[C@@H]2CSSC[C@H](NC(=O)[C@@H](N)CCCNC(=N)N)C(=O)N[C@@H](CO)C(=O)N[C@@H](C)C(=O)N[C@@H](CO)C(=O)N[C@@H](C(C)C)C(=O)N[C@@H](CCC(=O)O)C(=O)N[C@H]3CSSC[C@H](NC(=O)[C@H](CCCCN)NC(=O)[C@H](CCCCN)NC(=O)[C@H](CC(N)=O)NC1=O)C(=O)N[C@@H](CCCCN)C(=O)N[C@H](C(=O)N[C@@H](Cc1ccc(O)cc1)C(=O)N1CCC[C@H]1C(=O)N[C@@H](CCCNC(=N)N)C(N)=O)CSSC[C@H](NC(=O)[C@H](CCCCN)NC(=O)[C@H](CCC(N)=O)NC(=O)[C@H](CCCCN)NC3=O)C(=O)N[C@@H](CC(C)C)C(=O)N[C@@H](CCCCN)C(=O)N[C@@H](C)C(=O)N[C@@H]([C@@H](C)CC)C(=O)NCC(=O)N[C@@H](CO)C(=O)N[C@@H]([C@@H](C)CC)C(=O)N[C@@H](Cc1ccccc1)C(=O)NCC(=O)N[C@@H](CCCCN)C(=O)N2 [compound 100] (H-RCSASVECKQKCLKAIGSIFGKC[Nle]NKKCKCYPR-NH2; disulfide 2-23, 8-28, 12-30)	3290	0.52	708	>7600				
CCCC[C@@H]1NC(=O)[C@@H]2CSSC[C@H](NC(=O)[C@H](CCCCN)NC(=O)[C@H](CO)NC(C)=O)C(=O)N[C@@H](CO)C(=O)N[C@@H](C)C(=O)N[C@@H](CO)C(=O)N[C@@H](C(C)C)C(=O)N[C@@H](CCC(=O)O)C(=O)N[C@H]3CSSC[C@H](NC(=O)[C@H](CCCCN)NC(=O)[C@H](CCCCN)NC(=O)[C@H](CC(N)=O)NC1=O)C(=O)N[C@@H](CCCCN)C(=O)N[C@H](C(=O)N[C@@H](Cc1ccc(O)cc1)C(=O)N1CCC[C@H]1C(=O)N[C@@H](CCCNC(=N)N)C(N)=O)CSSC[C@H](NC(=O)[C@H](CCCCN)NC(=O)[C@H](CCC(N)=O)NC(=O)[C@H](CCCCN)NC3=O)C(=O)N[C@@H](CC(C)C)C(=O)N[C@@H](CCCCN)C(=O)N[C@@H](C)C(=O)N[C@@H]([C@@H](C)CC)C(=O)NCC(=O)N[C@@H](CO)C(=O)N[C@@H]([C@@H](C)CC)C(=O)N[C@@H](Cc1ccccc1)C(=O)NCC(=O)N[C@@H](CCCCN)C(=O)N2 [compound 101] (Ac-SKCSASVECKQKCLKAIGSIFGKC[Nle]NKKCKCYPR-NH2; disulfide 3-24, 9-29, 13-31)	1451	0.36	196	>3000				
CCCC[C@@H]1NC(=O)[C@@H]2CSSC[C@H](NC(=O)[C@H](CCCNC(=N)N)NC(=O)[C@H](CC(C)C)NC(C)=O)C(=O)N[C@@H](CO)C(=O)N[C@@H](C)C(=O)N[C@@H](CO)C(=O)N[C@@H](C(C)C)C(=O)N[C@@H](CCC(=O)O)C(=O)N[C@H]3CSSC[C@H](NC(=O)[C@H](CCCCN)NC(=O)[C@H](CCCCN)NC(=O)[C@H](CC(N)=O)NC1=O)C(=O)N[C@@H](CCCCN)C(=O)N[C@H](C(=O)N[C@@H](Cc1ccc(O)cc1)C(=O)N1CCC[C@H]1C(=O)N[C@@H](CCCNC(=N)N)C(N)=O)CSSC[C@H](NC(=O)[C@H](CCCCN)NC(=O)[C@H](CCC(N)=O)NC(=O)[C@H](CCCCN)NC3=O)C(=O)N[C@@H](CC(C)C)C(=O)N[C@@H](CCCCN)C(=O)N[C@@H](C)C(=O)N[C@@H]([C@@H](C)CC)C(=O)NCC(=O)N[C@@H](CO)C(=O)N[C@@H]([C@@H](C)CC)C(=O)N[C@@H](Cc1ccccc1)C(=O)NCC(=O)N[C@@H](CCCCN)C(=O)N2 [compound 102] (Ac-LRCSASVECKQKCLKAIGSIFGKC[Nle]NKKCKCYPR-NH2; disulfide 3-24, 9-29, 13-31)	7096	0.37	352	>8700				
CC[C@H](C)[C@@H]1NC(=O)[C@H](C)NC(=O)[C@H](CCCCN)NC(=O)[C@H](CC(C)C)NC(=O)[C@@H]2CSSC[C@@H](C(=O)N[C@@H](Cc3ccc(O)cc3)C(=O)N3CCC[C@H]3C(=O)N[C@@H](CCCNC(=N)N)C(=O)O)NC(=O)[C@H](CCCCN)NC(=O)[C@@H]3CSSC[C@H](NC(=O)[C@H](CCC(=O)O)NC(=O)[C@H](C(C)C)NC(=O)[C@H](CO)NC(=O)[C@H](C)NC(=O)[C@H](CO)NC(=O)[C@@H](N)CSSC[C@H](NC(=O)[C@H](CCCCN)NC(=O)CNC(=O)[C@H](Cc4ccccc4)NC(=O)[C@H]([C@@H](C)CC)NC(=O)[C@H](CO)NC(=O)CNC1=O)C(=O)N[C@@H](CCSC)C(=O)N[C@@H](CC(N)=O)C(=O)N[C@@H](CCCCN)C(=O)N[C@@H](CCCCN)C(=O)N3)C(=O)N[C@@H](CCCCN)C(=O)N[C@@H](CCC(N)=O)C(=O)N[C@@H](CCCCN)C(=O)N2 [compound 106] (H-CSASVECKQKCLKAIGSIFGKCMNKKCKCYPR-OH; disulfide 1-22, 7-27, 11-29)	>1400	1.9	878	>1400				

— patent publication US20240182531A1, “KV1.3 Blockers” (priority 2021, published 2024)
